# Assay results taken from US20200333324A1, “METHOD OF PREDICTING CLINICAL OUTCOME OF ANTICANCER AGENTS” (MITRA RXDX, INC., priority 2017, published 2020).
# What was measured:
# Type in all cases: cell-based, human
# HNSCC tumor tissue [1] = assay: FACS analysis for CD3 and CD8 (CD8+ T cell infiltration) in tumor microenvironment platform; settings: vs IgG control
# Protocol: The effect of Pembrolizumab and Nivolumab on CD8^+ T cell tumor infiltration was then evaluated. Tumor sections from the same patient cultured for 72 hours in the tumor microenvironment platform were treated with Pembrolizumab, Nivolumab, or IgG as control and stained for H&E, Ki67, Caspase 3, and CD8 at day 3 in culture (T3). Baseline staining was determined at TO. […] To further elucidate the effects of the anti-PD-1 antibodies, FACS analysis was performed on tumor tissue from patient 2941 and patient 2942 treated with either Pembrolizumab, Nivolumab, or IgG control. […] By contrast, there was no effect of either Pembrolizumab or Nivolumab on CD8^+ T cell infiltration for patient 2942, further highlighting the differential response between individuals to PD-1 blockade. CD8^+ T cell infiltration was evaluated in the tumor microenvironment platform with tumor tissue from the same patient, and comparisons for control vs Nivo, control vs Pembro, Nivo vs Pembro, and control vs Nivo vs Pembro for multiple patients are shown in FIG. 6 (each line represents results from the tumor microenvironment platform cultured with tumor tissue from a single individual).
# PBNCs = assay: FACS of CD3+/CD45+ lymphocytes for PD-1, CEACAM, LAG3, TIM3, OX40, ILDR2, 4-1-BB, GITR, PBNCs
# Protocol: (§1) To further probe the phenotypic modulation mediated by treatment with Nivolumab, tumor sections or PBNCs from the same patient cultured for 3 days (72 hours) in the tumor microenvironment platform were treated with Nivolumab or IgG control for one day, followed by flow cytometry gating for lymphocytes based on their forward and side scatter properties. Lymphocytes were further gated for expression of both CD3 and CD45, and this population of cells was analyzed by FACS for expression of PD-1, CEACAM, LAG3, TIM3, OX40, ILDR2, 4-1-BB, and GITR.
# HNSCC tumor tissue [2] = assay: M-score clinical outcome predictor: tumor microenvironment platform assays (WST-1, LDH, ATP, glucose uptake, Caspase 3/8, Ki67, H&E) input into machine-trained algorithm; design: scale not given here
# HNSCC tumor tissue [3] = assay: Granzyme B and Perforin secretion assays, HNSCC tumor sections in tumor microenvironment platform; settings: predicted non-responder, 48 hours
# Protocol: FIGS. 9A and 9B show quantification of results for Granzyme B and Perforin secretion assays for HNSCC tumor tissue cultured in the tumor microenvironment platform treated with Pembrolizumab, Nivolumab, or IgG control for 24 or 48 hours.
# HNSCC tumor sections from the same patient cultured for 24 or 48 hours in the tumor microenvironment platform with Pembrolizumab, Nivolumab, or IgG as control were assayed for Granzyme B and Perforin secretion. Results are shown in FIG. 9A for the tumor microenvironment platform with tumor tissue from a predicted responder and FIG. 9B for the tumor microenvironment platform with tumor tissue from a predicted non-responder. After treatment with Pembrolizumab for 48 hours, there was an increase in both Granzyme B and Perforin secretion in the tumor microenvironment platform with tissue from the predicted responder compared to treatment with the control IgG. By contrast, at 48 hours in the tumor microenvironment platform with tissue from the predicted non-responder there was no increase in Granzyme B or Perforin secretion for treatment with either Pembrolizumab or Nivolumab.
# CRC tumor tissue = assay: Granzyme B and Perforin secretion assays, CRC tumor sections in tumor microenvironment platform; settings: 48 hours
# Protocol: FIGS. 10A and 10B show quantification of results for Granzyme B and Perforin secretion assays for CRC tumor tissue cultured in the tumor microenvironment platform treated with Ipilimumab, Nivolumab, Ipilimumab+Nivolumab, FOLFIRI, or IgG control for 24 or 48 hours.
# In another experiment, CRC tumor sections from the same patient cultured for 24 or 48 hours in the tumor microenvironment platform with Ipilimumab, Nivolumab, Ipilimumab+Nivolumab, FOLFIRI, or IgG as control were assayed for Granzyme B and Perforin secretion. Results are shown in FIG. 10A for the tumor microenvironment platform with tumor tissue from a predicted responder and FIG. 10B for the tumor microenvironment platform with tumor tissue from a predicted non-responder. After treatment with Nivolumab for 48 hours, there was an increase in Granzyme B secretion in the tumor microenvironment platform with tissue from the predicted responder compared to treatment with Ipilimumab or the control IgG. By contrast, at 48 hours in the tumor microenvironment platform with tissue from the predicted non-responder there was no increase in Granzyme B or Perforin secretion for treatment with Nivolumab.
# Tumor sections [4] = assay: FACS analysis for CD25, CD127 and FOXP3 expression, tumor sections
# Protocol: The effect of treatment with Nivolumab and Pembrolizumab on CD25, CD127, and FOXP3 expression was then evaluated. Tumor sections or PBNCs from the same patient cultured for 3 days in the tumor microenvironment platform were treated with Pembrolizumab, Nivolumab, or IgG control for one day followed by FACS analysis for expression of CD25, CD127, and FOXP3.
# Tumor sections [5] = assay: FACS of CD3+/CD45+ lymphocytes for PD-1, CEACAM, LAG3, TIM3, OX40, ILDR2, 4-1-BB, GITR, tumor sections
# Protocol: as §1
# HNSCC tumor tissue [6] = assay: H&E staining and IHC for Ki67 and Caspase 3 in tumor microenvironment platform; settings: patient 2941
# Protocol: The effects of Pembrolizumab and Nivolumab on proliferation in the tumor microenvironment platform were then evaluated. Tumor sections from the same patient cultured for 72 hours in the tumor microenvironment platform (performed in at least biological triplicate) were treated with Pembrolizumab, Nivolumab, or IgG as control. Tissue was subsequently formalin fixed and paraffin embedded, and processed for H&E staining and immuno histochemical staining (IHC) with Ki67 and Caspase 3 at day 3 in culture (T3). Baseline staining was determined at TO.
# The effect of Pembrolizumab and Nivolumab on CD8^+ T cell tumor infiltration was then evaluated. Tumor sections from the same patient cultured for 72 hours in the tumor microenvironment platform were treated with Pembrolizumab, Nivolumab, or IgG as control and stained for H&E, Ki67, Caspase 3, and CD8 at day 3 in culture (T3). Baseline staining was determined at TO. […] CD8^+ T cell infiltration was evaluated in the tumor microenvironment platform with tumor tissue from the same patient, and comparisons for control vs Nivo, control vs Pembro, Nivo vs Pembro, and control vs Nivo vs Pembro for multiple patients are shown in FIG. 6 (each line represents results from the tumor microenvironment platform cultured with tumor tissue from a single individual).
# [7] = platform containing tumor tissue, vs IgG control
substance,measurement,setting,value
Nivolumab,CD8^+ T cell infiltration (FACS),HNSCC tumor tissue [1]; patient 2941,increase
same,CD8^+ T cell infiltration (FACS),HNSCC tumor tissue [1]; patient 2942,no effect
same,CEACAM PBMCs (% total cells),"PBNCs; CD3+/CD45+ lymphocytes, treated one day, control 0.12",2.74 % total cells
same,LAG3 PBMCs (% total cells),"PBNCs; CD3+/CD45+ lymphocytes, treated one day, control 0.14",0.031 % total cells
same,OX40 PBMCs (% total cells),"PBNCs; CD3+/CD45+ lymphocytes, treated one day, control 0.25",0 % total cells
same,4-1-BB PBMCs (% total cells),"PBNCs; CD3+/CD45+ lymphocytes, treated one day, control 0.27",0.38 % total cells
same,GITR PBMCs (% total cells),"PBNCs; CD3+/CD45+ lymphocytes, treated one day, control 0.30",0.50 % total cells
same,ILDR2 PBMCs (% total cells),"PBNCs; CD3+/CD45+ lymphocytes, treated one day, control 1.96",2.67 % total cells
same,PD-1 PBMCs (% total cells),"PBNCs; CD3+/CD45+ lymphocytes, treated one day, control 2.94",0.31 % total cells
same,TIM3 PBMCs (% total cells),"PBNCs; CD3+/CD45+ lymphocytes, treated one day, control 7.91",13.9 % total cells
same,ILDR2^+/CD3^+/CD45^+ and GITR^+/CD3^+/CD45^+ cell populations,"PBNCs; platform containing only PBNCs, vs IgG control",No significant change
same,M-score,HNSCC tumor tissue [2]; Patient ID 2916,13
same,M-score,HNSCC tumor tissue [2]; Patient ID 2926,31
same,M-score,HNSCC tumor tissue [2]; Patient ID 2939,5
same,M-score,HNSCC tumor tissue [2]; Patient ID 2942,28
same,M-score,HNSCC tumor tissue [2]; Patient ID 2950,16
same,M-score,HNSCC tumor tissue [2]; Patient ID 2963,5
same,M-score,HNSCC tumor tissue [2]; Patient ID 2979,9
same,M-score,HNSCC tumor tissue [2]; Patient ID 2980,12
same,Granzyme B secretion,HNSCC tumor tissue [3],no increase
same,Perforin secretion,HNSCC tumor tissue [3],no increase
same,Granzyme B secretion,CRC tumor tissue; predicted non-responder,no increase
same,Perforin secretion,CRC tumor tissue; predicted non-responder,no increase
same,Granzyme B secretion,"CRC tumor tissue; predicted responder, compared to Ipilimumab or control IgG",increase
same,CD25^+/FOXP3^− Tumor (% total cells),"Tumor sections [4]; Non-Responder, control 6.52",6.45 % total cells
same,CD25^+/CD127^+ Tumor (% total cells),"Tumor sections [4]; Non-Responder, control 19.6",16.1 % total cells
same,CD25^−/CD127^− Tumor (% total cells),"Tumor sections [4]; Non-Responder, control 22.1",21.7 % total cells
same,CD25^−/FOXP3^− Tumor (% total cells),"Tumor sections [4]; Non-Responder, control 23.6",17.5 % total cells
same,CD25^+/CD127^− Tumor (% total cells),"Tumor sections [4]; Non-Responder, control 25.4",22.1 % total cells
same,CD25^−/CD127^+ Tumor (% total cells),"Tumor sections [4]; Non-Responder, control 33.0",40.1 % total cells
same,CD25^+/FOXP3^+ Tumor (% total cells),"Tumor sections [4]; Non-Responder, control 34.4",29.5 % total cells
same,CD25^− FOXP3^+ Tumor (% total cells),"Tumor sections [4]; Non-Responder, control 35.5",46.5 % total cells
same,CD25^−/CD127^− Tumor (% total cells),"Tumor sections [4]; Responder, control 12.2",15.6 % total cells
same,CD25^− FOXP3^+ Tumor (% total cells),"Tumor sections [4]; Responder, control 18.9",45.7 % total cells
same,CD25^−/FOXP3^− Tumor (% total cells),"Tumor sections [4]; Responder, control 20.3",4.62 % total cells
same,CD25^+/CD127^− Tumor (% total cells),"Tumor sections [4]; Responder, control 23.0",25.4 % total cells
same,CD25^−/CD127^+ Tumor (% total cells),"Tumor sections [4]; Responder, control 24.3",31.8 % total cells
same,CD25^+/FOXP3^− Tumor (% total cells),"Tumor sections [4]; Responder, control 25.7",5.20 % total cells
same,CD25^+/FOXP3^+ Tumor (% total cells),"Tumor sections [4]; Responder, control 35.1",44.5 % total cells
same,CD25^+/CD127^+ Tumor (% total cells),"Tumor sections [4]; Responder, control 40.5",27.2 % total cells
same,"functional Treg cells (CD25, CD127, FOXP3 FACS)",Tumor sections [4]; platform containing tumor tissue,patient sample-dependent functional Treg cell depression
same,OX40 Tumor (% total cells),"Tumor sections [5]; CD3+/CD45+ lymphocytes, treated one day, control 1.70",0 % total cells
same,CEACAM Tumor (% total cells),"Tumor sections [5]; CD3+/CD45+ lymphocytes, treated one day, control 2.04",3.69 % total cells
same,LAG3 Tumor (% total cells),"Tumor sections [5]; CD3+/CD45+ lymphocytes, treated one day, control 2.22",0.52 % total cells
same,GITR Tumor (% total cells),"Tumor sections [5]; CD3+/CD45+ lymphocytes, treated one day, control 2.60",13.0 % total cells
same,4-1-BB Tumor (% total cells),"Tumor sections [5]; CD3+/CD45+ lymphocytes, treated one day, control 4.69",7.56 % total cells
same,TIM3 Tumor (% total cells),"Tumor sections [5]; CD3+/CD45+ lymphocytes, treated one day, control 17.8",19.9 % total cells
same,PD-1 Tumor (% total cells),"Tumor sections [5]; CD3+/CD45+ lymphocytes, treated one day, control 19.4",20.5 % total cells
same,ILDR2 Tumor (% total cells),"Tumor sections [5]; CD3+/CD45+ lymphocytes, treated one day, control 24.4",17.1 % total cells
same,number of GITR^+/CD3^+/CD45^+ lymphocytes,Tumor sections [5]; [7],increase
same,number of ILDR2^+/CD3^+/CD45^+ lymphocytes,Tumor sections [5]; [7],decrease
same,proliferation (Ki67 IHC),"HNSCC tumor tissue [6]; 72 hours, vs IgG control",diminished proliferation
same,Caspase 3 activity (IHC),"HNSCC tumor tissue [6]; T3, associated with increased CD8^+ T cell infiltration",increased Caspase 3 activity
